In brackets after ≈: the same amount, converted by molar mass. Like-named read-outs stand apart in the source and are kept apart here.
Assays:
A. baumannii ATCC BAA747 = assay: MIC by broth microdilution; type: cell-based; settings: Acinetobacter baumannii, ATCCBAA747; read-out: MIC A. baumannii ATCC BAA747
Protocol: (§1) MIC was determined by broth microdilution. Single-colony cultures were grown to exponential phase (OD600 of 0.5) aerobically at 37 °C. In case of strains from the Keio collection, 50 µg ml^−1 kanamycin was supplemented to the media to ascertain a homogeneous population. The bacterial suspensions were diluted 100-fold in CAMHB and 50 µl was added to a twofold serial dilution series of test compounds (50 µl per well) in polypropylene 96-well microtitre plates to reach a volume of 100 µl. The plates were sealed with breathable membranes and incubated overnight at 37 °C with constant shaking (600 r.p.m.). The MIC was determined as the lowest concentration at which no visible bacterial growth was observed as compared with the inoculum controls from the median of a minimum of triplicates.

P. aeruginosa ATCC 27853 = assay: MIC by broth microdilution; type: cell-based; settings: Pseudomonas aeruginosa, ATCC27853; read-out: MIC P. aeruginosa ATCC 27853
Protocol: as §1

[1] = test system: S. aureus ATCC 29213 / ATCC BAA1717; assay: MIC by broth microdilution; type: cell-based; settings: Staphylococcus aureus
Protocol: as §1

[2] = test system: E. coli BW25113 and single-gene knockouts; assay: MIC on E. coli strains of the Keio collection; type: cell-based, Escherichia coli; settings: for MIC: Escherichia coli
Protocol: as §1

E. coli ATCC 25922 = assay: MIC by broth microdilution; type: cell-based; settings: Escherichia coli, ATCC25922, read-out: MIC E. coli ATCC 25922
Protocol: as §1, with “r.p.m.).” for “r.p.m.). The MIC was determined as the lowest concentration at which no visible bacterial growth was observed as compared with the inoculum controls from the median of a minimum of triplicates.”

[3] = test system: clinical isolates of E. coli; assay: MIC against clinical isolates and potentiation by 4 µM PMBN; type: cell-based, Escherichia coli; settings: for MIC: Escherichia coli
Protocol: as §1, with “r.p.m.).” for “r.p.m.). The MIC was determined as the lowest concentration at which no visible bacterial growth was observed as compared with the inoculum controls from the median of a minimum of triplicates.”

[4] = test system: 60-resistant (60-r) isolates of E. coli W3110; assay: microbe, parasite or virus in culture; type: cell-based, Escherichia coli; settings: Escherichia coli
How it was run: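 Broth microdilution MIC: exponential-phase cultures (OD600 0.5) diluted 100-fold in CAMHB, mixed 1:1 with twofold compound dilutions, 37 °C overnight, shaking at 600 r.p.m. MIC is lowest concentration without visible growth, median of at least triplicates.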

**Q.** What does the source list for `O=S(=O)(NC[C@@H]1CC[C@H](c2ccc(-c3cccnc3)cc2)N1)c1cccc2cnccc12` [LEI-800]?
**A.** MIC (A. baumannii ATCC BAA747): 25 µM (≈ 11.1 µg/mL); MIC (P. aeruginosa ATCC 27853): > 50 µM; MIC ([1]; read-out: MIC S. aureus ATCC 29213): > 50 µM; MIC ([1]; read-out: MIC S. aureus ATCC BAA1717): > 50 µM; potency against ΔtolC efflux pump mutant [2]: No increase in potency; MIC ([2]; BW25113, JW3594 ΔrfaD): 0.4 µM (≈ 0.178 µg/mL); MIC ([2]; BW25113, JW3596 ΔrfaC, LPS disruption (genetic)): 0.4 µM (≈ 0.178 µg/mL); MIC ([2]; BW25113, JW3600 ΔrfaY): 1.6 µM (≈ 0.711 µg/mL); MIC ([2]; BW25113, JW3602 ΔrfaI): 1.6 µM (≈ 0.711 µg/mL); MIC ([2]; BW25113, JW3605 ΔrfaP): 0.4 µM (≈ 0.178 µg/mL); MIC ([2]; BW25113, JW5503 ΔTolC): 3.1 µM (≈ 1.38 µg/mL); MIC ([2]; BW25113, read-out: MIC E. coli BW25113, parent strain): 3.1 µM (≈ 1.38 µg/mL); MIC (E. coli ATCC 25922): 6.25 µM (≈ 2.78 µg/mL); FC ([3]; E. coli 1075, fold change in MIC after 4 µM PMBN): > 4; MSC ([3]; E. coli 1075, with 4 µM PMBN): 12.5 µM; FC ([3]; E. coli 552059.1, fold change in MIC after 4 µM PMBN): 32; MSC ([3]; E. coli 552059.1, with 4 µM PMBN): 0.78 µM; FC ([3]; E. coli 552060.1, fold change in MIC after 4 µM PMBN): 16; MSC ([3]; E. coli 552060.1, with 4 µM PMBN): 1.5 µM; FC ([3]; E. coli MVAST0072, fold change in MIC after 4 µM PMBN): 16; MSC ([3]; E. coli MVAST0072, with 4 µM PMBN): 1.5 µM; FC ([3]; E. coli NCTC13463, fold change in MIC after 4 µM PMBN): 8; MSC ([3]; E. coli NCTC13463, with 4 µM PMBN): 0.4 µM; FC ([3]; E. coli NCTC13846, fold change in MIC after 4 µM PMBN): 4; MSC ([3]; E. coli NCTC13846, with 4 µM PMBN): 12.5 µM; FC ([3]; E. coli mcr-1, fold change in MIC after addition of 4 µM PMBN): 4; MSC ([3]; E. coli mcr-1, with 4 µM PMBN): 6.25 µM; MIC ([3]; CIP-resistant isolate 965 (MDR)): 12.5 µM; MIC ([3]; CIP-resistant isolate 991, read-out: MIC): 25 µM; MIC ([3]; CIP-resistant isolate 1022 (ESBL), read-out: MIC): 25 µM; MIC ([3]; CIP-resistant isolate 1104 (MDR), read-out: MIC): 25 µM; MIC ([3]; CIP-resistant isolate 1146 (MDR)): 6.25 µM; MIC ([3]; CIP-resistant isolate 1175 (MDR), read-out: MIC): 25 µM; MIC ([3]; CIP-resistant isolate 1192 (MDR), read-out: MIC): 50 µM; MIC ([3]; CIP-resistant isolate 1201 (MDR)): 12.5 µM; MIC ([3]; CIP-resistant isolate 1233, read-out: MIC): 12.5 µM; MIC ([3]; E. coli 1075 (MDR), read-out: MIC): > 50 µM; MIC ([3]; E. coli 552059.1, read-out: MIC): 25 µM; MIC ([3]; E. coli 552060.1, read-out: MIC): 25 µM; MIC ([3]; E. coli MVAST0072 (MDR), read-out: MIC): 25 µM; MIC ([3]; NCTC13463, E. coli NCTC13463 (ESBL), read-out: MIC): 3.1 µM; MIC ([3]; NCTC13846, E. coli NCTC13846 (MDR, mcr-1)): 50 µM; FC ([3]; isolate 965, fold-change in MIC): 16; MSC ([3]; isolate 965, with 4 μM PMBN): 0.8 µM; FC ([3]; isolate 991, fold-change in MIC): 8; MSC ([3]; isolate 991, with 4 μM PMBN): 3.1 µM; FC ([3]; isolate 1022, fold-change in MIC): 16; MSC ([3]; isolate 1022, with 4 μM PMBN): 1.6 µM; FC ([3]; isolate 1104, fold-change in MIC): 16; MSC ([3]; isolate 1104, with 4 μM PMBN): 1.6 µM; FC ([3]; isolate 1146, fold-change in MIC): 8; MSC ([3]; isolate 1146, with 4 μM PMBN): 0.8 µM; FC ([3]; isolate 1175, fold-change in MIC): 8; MSC ([3]; isolate 1175, with 4 μM PMBN): 3.1 µM; FC ([3]; isolate 1192, fold-change in MIC): 16; MSC ([3]; isolate 1192, with 4 μM PMBN): 3.1 µM; FC ([3]; isolate 1201, fold-change in MIC): 8; MSC ([3]; isolate 1201, with 4 μM PMBN): 1.6 µM; FC ([3]; isolate 1233, fold-change in MIC): 8; MSC ([3]; isolate 1233, with 4 μM PMBN): 1.6 µM; MIC ([4]; E. coli W3110 60-r1): > 50 µM; MIC ([4]; E. coli W3110 60-r3): 12.5 µM (≈ 5.56 µg/mL); MIC ([4]; E. coli W3110 60-r6): 12.5 µM (≈ 5.56 µg/mL)

Source: publication PMC11374673, “Discovery of isoquinoline sulfonamides as allosteric gyrase inhibitors with activity against fluoroquinolone-resistant bacteria” (Nature Chemistry, 2024)
